Test results reported in patent US20200131196A1 (Mount Tam Therapeutics, Inc., priority 2017, published 2020).

Columns and labels:
CAMA-1 = experiment: OncoPanel cell proliferation assay, CAMA-1
Procedure: (§5) Cells were seeded into 384-well plates and incubated in a humidified atmosphere of 5% CO2 at 37° C. Compounds were added the day following cell seeding. At the same time, a time zero untreated cell plate was generated. After a 3-day incubation period, cells were fixed and stained to allow fluorescence imaging of nuclei. Compounds (1 mM stock solutions) were serially diluted in half-log steps from the highest test concentration (1 micromol), and assayed over 10 concentrations with a maximum assay concentration of 0.1% DMSO. Automated fluorescence microscopy was carried out using a Molecular Devices ImageXpress Micro XL high-content imager, and images were collected with a 4× objective. 16-bit TIFF images were acquired and analyzed with MetaXpress 5.1.0.41 software.
(§6) GI50 is the concentration needed to reduce the observed growth by half (midway between the curve maximum and the time zero value). […] In rare instances, values <0 or >10 may be observed. […] Curve-fitting, calculations, and report generation was performed using a custom data reduction engine and MathIQ based software (AIM).

CHP-212 = experiment: OncoPanel cell proliferation assay, CHP-212
Procedure: as §5, §6

TF-1 = experiment: OncoPanel cell proliferation assay, TF-1; assay type: cell-based, human
Procedure: (§1) Cells were grown in RPMI 1640, 10% FBS, 2 mM L-alanyl-L-glutamine, 1 mM Na pyruvate, or a special medium. Cells were seeded into 384-well plates and incubated in a humidified atmosphere of 5% CO2 at 37° C. Compounds were added the day following cell seeding. At the same time, a time zero untreated cell plate was generated. After a 3-day incubation period, cells were fixed and stained to allow fluorescence imaging of nuclei. Compounds (1 mM stock solutions) were serially diluted in half-log steps from the highest test concentration ([…]), and assayed over 10 concentrations with a maximum assay concentration of 0.1% DMSO. Automated fluorescence microscopy was carried out using a Molecular Devices ImageXpress Micro XL high-content imager, and images were collected with a 4× objective. 16-bit TIFF images were acquired and analyzed with MetaXpress 5.1.0.41 software.
(§2) Cell proliferation was measured by the fluorescence intensity of an incorporated nuclear dye. The output is referred to as the relative cell count, where the measured nuclear intensity is transformed to percent of control (POC) using the following formula: […]
(§3) Cellular response parameters were calculated using nonlinear regression to a sigmoidal single-site dose response model:
(§4) EC50 is the test compound concentration at the curve inflection point or half the effective response (parameter C of the fitted curve solution). GI50 is the concentration needed to reduce the observed growth by half (midway between the curve maximum and the time zero value). “Cell Count Activity Area” is an estimate of the integrated area above the curve (Barretina, et al. The Cancer Cell Line Encyclopedia enables predictive modelling of anticancer drug sensitivity. Nature 483: 603-607). […] In rare instances, values <0 or >10 may be observed. […] Curve-fitting, calculations, and report generation was performed using a custom data reduction engine and MathIQ based software (AIM).

SHP-77 = experiment: OncoPanel cell proliferation assay, SHP-77
Procedure: as §5, §6

CEM-C1 = experiment: OncoPanel cell proliferation assay, CEM-C1; assay type: cell-based, human
Procedure: as §1, §2, §3, §4

CRO-AP2 = experiment: OncoPanel cell proliferation assay, CRO-AP2; assay type: cell-based, human
Procedure: as §1, §2, §3, §4

G-402 = experiment: OncoPanel cell proliferation assay, G-402; assay type: cell-based, human
Procedure: as §1, §2, §3, §4

SK-NEP-1 = experiment: OncoPanel cell proliferation assay, SK-NEP-1
Procedure: as §5, §6

786-O = experiment: OncoPanel cell proliferation assay, 786-O; assay type: cell-based, human; conditions: 786-O
Procedure: as §1, §2, §3, §4

RKOE6 = experiment: OncoPanel cell proliferation assay, RKOE6
Procedure: as §5, §6

SK-UT-1 = experiment: OncoPanel cell proliferation assay, SK-UT-1
Procedure: as §5, §6

[1] = Homo sapiens, read-out: Cell Count GI50
[2] = Homo sapiens, read-out: Cell Count IC50

## CN[C@@H]1C[C@H]2O[C@@](C)([C@@H]1OC)n1c3ccccc3c3c4c(c5c6ccccc6n2c5c31)C(=O)NC4 [Staurosporine, reference compound]
CAMA-1; CAMA-1
  Cell Count Activity Area: 2.99
CAMA-1; Homo sapiens, CAMA-1, read-out: Cell Count EC50
  EC50: 20.2 nM
CAMA-1; Homo sapiens, CAMA-1, read-out: Cell Count GI50
  GI50: 12 nM
CAMA-1; Homo sapiens, CAMA-1, read-out: Cell Count IC50
  IC50: 99 nM
CHP-212; CHP-212
  Cell Count Activity Area: 4.80
CHP-212; Homo sapiens, CHP-212, read-out: Cell Count GI50
  GI50: 2.59 nM
CHP-212; Homo sapiens, CHP-212, read-out: Cell Count IC50
  IC50: 4.78 nM
TF-1
  Cell Count Activity Area: 3.31
TF-1; [1]
  GI50: 10.9 nM
TF-1; [2]
  IC50: 11.9 nM
SHP-77; Homo sapiens, SHP77, read-out: Cell Count EC50
  EC50: 28.1 nM
SHP-77; Homo sapiens, SHP77, read-out: Cell Count GI50
  GI50: 24.2 nM
SHP-77; Homo sapiens, SHP77, read-out: Cell Count IC50
  IC50: 30.8 nM
SHP-77; SHP-77
  Cell Count Activity Area: 3.16
CEM-C1
  Cell Count Activity Area: 4.28
CEM-C1; [1]
  GI50: 7.27 nM
CEM-C1; [2]
  IC50: 9.2 nM
CRO-AP2
  Cell Count Activity Area: 3.99
CRO-AP2; [1]
  GI50: 13.2 nM
G-402
  Cell Count Activity Area: 5.93
G-402; [1]
  GI50: 0.664 nM
SK-NEP-1; Homo sapiens, SK-NEP-1, read-out: Cell Count EC50
  EC50: 48.2 nM
SK-NEP-1; Homo sapiens, SK-NEP-1, read-out: Cell Count GI50
  GI50: 36.5 nM
SK-NEP-1; SK-NEP-1
  Cell Count Activity Area: 2.78
786-O
  Cell Count Activity Area: 4.87
786-O; Homo sapiens, 786-0, read-out: Cell Count EC50
  EC50: 3.58 nM
786-O; Homo sapiens, 786-0, read-out: Cell Count GI50
  GI50: 3.41 nM
RKOE6; Homo sapiens, RKOE6, read-out: Cell Count EC50
  EC50: 16.8 nM
RKOE6; Homo sapiens, RKOE6, read-out: Cell Count GI50
  GI50: 13.2 nM
RKOE6; Homo sapiens, RKOE6, read-out: Cell Count IC50
  IC50: 17.9 nM
RKOE6; RKOE6
  Cell Count Activity Area: 3.96
SK-UT-1; Homo sapiens, SK-UT-1, read-out: Cell Count EC50
  EC50: 21.8 nM
SK-UT-1; Homo sapiens, SK-UT-1, read-out: Cell Count GI50
  GI50: 19.5 nM
SK-UT-1; SK-UT-1
  Cell Count Activity Area: 3.46
